Experiments:
[1] = system: non-alcoholic steatohepatitis (NASH); assay: Accelerated mouse model of NASH (STZ + HFD), Part I; type: in vivo, C57BL/6J mice; details: vs vehicle
Description: The subjects for the study were 30 C57BL/6J male mice. Mice were given a 200 ug streptozotocin (STZ) at 2 days after birth and fed high fat diet (HFD) starting at four weeks of age until the remainder of the study (9 weeks of age). This intervention early in their lives induces accelerated progression of non-alcoholic steatohepatitis (NASH) and has been highly characterized.
The Vehicle was a solution of 0.5% (w/v) CMC and 0.05% (v/v) Tween-80 in water. Powdered 25HC3 S was constituted into the vehicle solution to result in drug concentrations of 5 and 10 mg/mL. The suspensions were homogenized for approximately 5 minutes being combined, with 10 second breaks every 30-40 seconds and swirled before dosing to maintain homogeneity. The formulated test article was prepared weekly and kept at room temperature.
Mice were divided into treatment groups (N=10/group) and dosed daily by oral gavage with vehicle, 10 mg/kg or 50 mg/kg 25HC3S starting from Week 5 to Week 9 (28 days treatment).

[2] = Osmolality by vapor pressure osmometer; type: physicochemical
Description: Vapor Pressure Osmometer: Vapor® Vapor Pressure Osmometer, Model
Vehicle PEG 3350 (3% PEG 3350 plus 0.3% Tween 80 in 10 mM Phosphate at pH 7.4) with 0.71%, 0.77% and 0.80% NaCl were prepared and the osmolality was measured with a vapor pressure osmometer.
Weigh 87 mg of 25HC3S (Lot #C, Jet milled and then pass 20 mesh screen) into a 5-mL vial. Add to the vial 3 mL Vehicle PEG 3350 (without L-methionine and with 0.75% NaCl). […] Weigh another approximately and accurately 90 mg each of 25HC3S (Lot #D and Lot #B, micronized, one pass) into 3 separate 10 mL vials with 3 mL of Vehicle PEG 3350. The vials were placed in a flat bed shaker at 200 rpm for 45 minutes (Mixing Method 4). […] A second set of samples was prepared likewise from the same 3 vials except using 1 mL BD syringe attached to a 27G½″ needle. The homogeneity was determined (Study #19).

[3] = 10 mg/kg daily oral gavage 28 days

Structure (SMILES): C[C@H](CCCC(C)(C)O)[C@H]1CC[C@H]2[C@@H]3CC=C4C[C@@H](OS(=O)(=O)[O-])CC[C@]4(C)[C@H]3CC[C@]12C.[Na+] [Formulation 25HC3S, 5-cholesten-3, 25-diol, 3-sulfate]
- H&E-stained liver sections [1, 3]: No obvious changes
- percent area of fibrosis [1, 3]: no significant difference
- percent area of fibrosis (Sirius red-positive area) ([1]; 50 mg/kg daily oral gavage 28 days, p=0.0061): significantly decreased
- NAS (NAFLD activity score) ([1]; 50 mg/kg daily oral gavage 28 days, p=0.0088): significant reduction
- osmolality ([2]; final improved formulation 25 mg/mL (Study #18)): 321 mmol/kg
- osmolality ([2]; suspension 25 mg/mL in Vehicle PEG 3350 without L-Methionine, 0.75% NaCl, average of 6 measurements): 321 mmol/kg
